According to patent publication US20220288151A1, “COMPOSITIONS AND METHODS FOR TREATING NEUROLOGICAL DISEASES” (CARMEL HAIFA UNIVERSITY ECONOMIC CORPORATION LTD., priority 2019, published 2022):

What was measured:
[1] = Body weight during TMZ/vehicle i.p. injection protocol; assay type: in vivo; conditions: mice given TMZ or vehicle i.p. on three consecutive days per week for four weeks
Description: The enriched environment (groups 2 and 3) included a running wheel, two different objects, small ball, a short plastic tube, bedding, and a nest. Control animals (groups 1 and 4) were in standard cages including bedding and nest. In both conditions, three mice were housed per cage for four weeks. The mice received a TMZ/vehicle i.p. injection three times a week. On day 29, the mice received a BrdU i.p. injection and were perfused 24 h later for IHC analysis. For neurogenesis suppression, TMZ was dissolved in DMSO at 25 mg/ml and diluted to 1.25 mg/ml in sterile saline. The mice were given i.p. injections of saline +5% DMSO (vehicle) or TMZ on three consecutive days followed by four days with no injection for four weeks. On the last week, BrdU was given i.p. in 0.9% NaCl at 200 mg/kg body weight.
Sixteen (16) eEF2K double foxed mice were injected with CaMKII-Cre and GFP viruses to the DG and 3 weeks following virus injection were injected i.p TMZ and vehicle. TMZ was dissolved in DMSO at 25 mg/ml and diluted to 1.25 mg/ml in sterile saline. The mice were given i.p. injections of saline +5% DMSO (vehicle) or TMZ on three consecutive days followed by four days with no injection for four weeks. On the last week, BrdU was given i.p. in 0.9% NaCl at 200 mg/kg body weight. […]

eEF2 (pThr56eEF2) = experiment: Western blot of pThr56eEF2, eEF2 and tubulin in DG and cortex samples after ketamine i.p. injection; assay type: in vivo, mice; conditions: 30 min after injection; for pThr56eEF2 normalized to total eEF2 in DG lysates: dentate gyrus
Description: Mouse brains were quickly excised and snap frozen immediately in liquid nitrogen, and then transferred to −80° C. for later use. The brains were kept in the cryostat cabin for 15 min at −15° C. before starting tissue punching. Four 500 μm thick coronal sections were sliced slowly, and the DG and cortex tissues from both hemispheres were collected by a mouse tissue puncher. The DG and cortex tissues were transferred to a new tubes and kept immediately on dry ice and then transferred to −80° C. until further use. Brain tissues were homogenized in 100 μl of ice-cold homogenization buffer (HEPES 10 mM pH 7.4, EDTA 2 mM pH 7.4, EGTA 2 mM pH 7.4, DTT 0.5 mM (all from Sigma-Aldrich, Rehovot, Israel), 1× protease inhibitor mixture (Sigma-Aldrich Rehovot, Israel); and 1× phosphatase inhibitor mixture (Sigma-Aldrich)). Protein concentration was determined by a BCA kit (CYANAGEN, PRTD1, 0500). Protein Samples were prepared in SDS sample buffer (22.22% glycerol, 22.22% SDS (20% stock), 26.66% (0.5 M Tris PH 6.8), rest DDW) and β-Mercaptoethanol, then were boiled in 100° C. for 5 min. Each sample was divided to 3 aliquots. Each aliquot was thawed on ice and used for blotting only once or twice. The samples were subjected to 10% or 12% gel SDS-PAGE (electrophoresed on Bio-Rad PAGE apparatus) and Western blot analysis. Each sample was loaded with the same amount of total protein (8-12 μg; according to antibody linearity). After transfer to a […] pore size nitrocellulose membrane or PVDF membrane, the blots were blocked with 5% bovine serum albumin (BSA) or non-fat dry milk (blotting-grade blocker, Bio-Rad) in Tris-buffered saline plus 0.5% tween-20 (TBST) at room temperature for 1 hr. The blots were incubated overnight with the suitable primary antibodies. The blots were then subjected to three 5 min washing steps in TBST, after which they were incubated with the corresponding HRP-conjugated secondary antibodies for 1 h at room temperature followed by three 10 min washing steps with TBST. Immunodetection was performed with the enhanced-chemiluminescence EZ-ECL kit (Biological Industries, Israel). The immunoblots were quantified with a CCD camera and Quantity One software (Bio-Rad).
For all tested proteins, polyacrylamide gels were freshly prepared and used on the same day. Polyacrylamide gels (10%, Tris pH 8.8) were used to analyze the expression of eEF2, pThr56eEF2, vimentin, decorin, AMPK, pThr172AMPK, KIFSA, ERK2, pERK2, pS6K1, S6K1 and tubulin. In addition, criterion gels (BIO-RAD) were used to analyze the expression of NSF protein in the different fractions. Samples containing 10 μg protein were loaded for the detection of each protein. Samples containing 8 μg protein were loaded for ERK and pERK and […] for S6K1 and pS6K1. Each immunoblot was measured relative to the background and normalized to the endogenous control (tubulin), taken from the same gel. Mature-BDNF was analyzed using 12% (Tris pH 8.8) polyacrylamide gel and was measured relative to the background and normalized to tubulin from the same gel. Samples containing 12 μg protein were loaded for mature-BDNF. The phoshpo-protein was normalized to tubulin taken from the same gel as well.

WT mice = experiment: Forced swim test; assay type: in vivo; conditions: WT naive mice, ketamine 5 mg/kg i.p., 30 min before test, vs saline; last 4 min scored
Description: WT mice were injected with ketamine 5 mg/kg or saline i.p., and 30 min later together with the CaMKII Cre/GFP-injected mice were all subjected to the forced swim test (FST). The mice were placed in a 5-liter transparent glass beaker containing 4-liter warm water at 24° C. The mice were video recorded for 6 min. The last 4 min were manually scored for immobility. Total immobility time (in seconds) is presented in the results.

[2] = ketamine 5 mg/kg i.p. vs control, cortex
[3] = ketamine 5 mg/kg i.p. vs saline

Compound	body weight throughout the experiment [1]	eEF2 protein level normalized to tubulin in cortex tissue (eEF2 (pThr56eEF2); [2])	pT56eEF2 normalized to eEF2 protein in cortex tissue (eEF2 (pThr56eEF2); [2])	eEF2 protein levels normalized to tubulin (DG samples) (eEF2 (pThr56eEF2); [3])	pThr56eEF2 normalized to total eEF2 in DG lysates (eEF2 (pThr56eEF2); [3])	pThr56eEF2 normalized to total eEF2 in DG lysates (eEF2 (pThr56eEF2); ketamine 5 mg/kg i.p. vs saline, listed as Ketamine)	immobility time in forced swim test (WT mice)
Cn1nnc2c(C(N)=O)ncn2c1=O [TMZ, Temozolomide]	maintained normal body weight	–	–	–	–	–	–
CNC1(c2ccccc2Cl)CCCCC1=O (stereo not shown) [ketamine]	–	no change in eEF2 protein level	reduces pT56eEF2 levels	no change in eEF2 protein levels	peEF2 levels were reduced	induces eEF2 dephosphorylation	significantly lower immobility time
